The nature of data set [1]: Solubility in 0.05M PO4-. It counts as physicochemical. The conditions noted are these: for solubility: 0.05 M phosphate buffer, aqueous buffer.
Data set [2] deals with 5HT1A (Homo sapiens, UniProt P08908). The data set is described as follows: biochemical. Conditions: read-out: 5HT1A percent activity or inhibition compared to the assay reference.
Data set [3] deals with ABL1 (Homo sapiens, UniProt P00519). The data set is described as follows: biochemical. Conditions: read-out: ABL1 percent activity or inhibition compared to the assay reference.
The target of data set [4] is ACETYLCHOLINESTERASE (Homo sapiens, UniProt P22303). The data set is described as follows: biochemical. The conditions noted are these: read-out: ACETYLCHOLINESTERASE percent activity or inhibition compared to the assay reference.
Data set [5] has as its target ADENOSINE A3 REC. (Homo sapiens, UniProt P0DMS8). Put plainly: biochemical. The conditions noted are these: read-out: ADENOSINE A3 REC. percent activity or inhibition compared to the assay reference.
Data set [6] has as its target α1A-ADRENOCEPTOR (Homo sapiens, UniProt P35348). Put plainly: biochemical. Conditions: read-out: α1A-ADRENOCEPTOR percent activity or inhibition compared to the assay reference.
The target of data set [7] is ANDROGEN REC. (Homo sapiens, UniProt P10275). Put plainly: biochemical. Conditions: read-out: ANDROGEN REC. percent activity or inhibition compared to the assay reference.
Data set [8] addresses C[…]. CB1 (Homo sapiens, UniProt P21554). The data set is described as follows: biochemical. The conditions noted are these: read-out: C[…]. CB1 percent activity or inhibition compared to the assay reference.
For data set [9], the target named is CDK2 (Homo sapiens, UniProt P24941). The data set is described as follows: biochemical. The conditions noted are these: read-out: CDK2 percent activity or inhibition compared to the assay reference.
Data set [10] addresses CHOLECYSTOKININ 1 REC. (Homo sapiens, UniProt P32238). The data set is described as follows: biochemical. Conditions: read-out: CHOLECYSTOKININ 1 REC. percent activity or inhibition compared to the assay reference.
In data set [11] the target is T1, CYCLO OXYGENASE 2 (Homo sapiens, UniProt P35354). Put plainly: biochemical. The conditions noted are these: read-out: CYCLO OXYGENASE 2 percent activity or inhibition compared to the assay reference.
T1 sequence (P35354 18-604): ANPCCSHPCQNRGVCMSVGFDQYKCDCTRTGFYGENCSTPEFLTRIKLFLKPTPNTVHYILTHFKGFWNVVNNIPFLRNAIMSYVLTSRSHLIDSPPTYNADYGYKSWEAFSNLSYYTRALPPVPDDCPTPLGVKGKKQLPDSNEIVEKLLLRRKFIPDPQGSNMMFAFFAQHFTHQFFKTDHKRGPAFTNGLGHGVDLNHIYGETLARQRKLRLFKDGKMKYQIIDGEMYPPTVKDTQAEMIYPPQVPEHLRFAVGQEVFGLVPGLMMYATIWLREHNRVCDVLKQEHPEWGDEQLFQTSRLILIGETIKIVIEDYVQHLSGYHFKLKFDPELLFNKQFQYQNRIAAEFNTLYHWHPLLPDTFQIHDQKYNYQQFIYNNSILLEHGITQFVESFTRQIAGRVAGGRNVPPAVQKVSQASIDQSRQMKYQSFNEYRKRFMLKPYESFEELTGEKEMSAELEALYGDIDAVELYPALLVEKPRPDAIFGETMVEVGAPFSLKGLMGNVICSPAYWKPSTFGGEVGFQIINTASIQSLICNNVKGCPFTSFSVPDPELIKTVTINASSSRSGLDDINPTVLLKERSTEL
Data set [12] concerns the target DOPAMINE D1 REC. (Homo sapiens, UniProt P21728). The data set is described as follows: biochemical. Conditions: read-out: DOPAMINE D1 REC. percent activity or inhibition compared to the assay reference.
Data set [13] has as its target DOPAMINE D2 REC. (short) (Homo sapiens, UniProt P14416). The data set is described as follows: biochemical. Conditions: read-out: DOPAMINE D2 REC. (short) percent activity or inhibition compared to the assay reference.
In data set [14] the target is ESTROGEN REC. α (Homo sapiens, UniProt P03372). The data set is described as follows: biochemical. Conditions: read-out: ESTROGEN REC. α percent activity or inhibition compared to the assay reference.
ESTROGEN REC. α, sequence (P03372 whole entry): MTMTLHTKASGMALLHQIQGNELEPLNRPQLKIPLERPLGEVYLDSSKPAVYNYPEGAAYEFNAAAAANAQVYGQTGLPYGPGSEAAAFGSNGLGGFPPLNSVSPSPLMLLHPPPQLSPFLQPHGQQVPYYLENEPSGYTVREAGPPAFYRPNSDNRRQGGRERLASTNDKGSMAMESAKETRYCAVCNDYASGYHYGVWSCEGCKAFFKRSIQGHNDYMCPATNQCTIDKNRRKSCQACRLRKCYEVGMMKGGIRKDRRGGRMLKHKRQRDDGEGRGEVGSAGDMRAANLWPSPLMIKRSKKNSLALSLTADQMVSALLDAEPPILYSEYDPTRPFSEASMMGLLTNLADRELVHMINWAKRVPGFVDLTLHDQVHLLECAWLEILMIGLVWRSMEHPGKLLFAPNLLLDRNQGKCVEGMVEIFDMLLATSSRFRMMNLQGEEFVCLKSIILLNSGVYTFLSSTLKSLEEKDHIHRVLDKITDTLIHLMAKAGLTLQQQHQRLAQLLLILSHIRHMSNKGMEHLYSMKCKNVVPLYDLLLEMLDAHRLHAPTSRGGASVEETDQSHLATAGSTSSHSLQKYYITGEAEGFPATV
For data set [15], the target named is GLUC[…]. (Homo sapiens, UniProt P04150). The data set is described as follows: biochemical. The conditions noted are these: read-out: GLUC[…]. percent activity or inhibition compared to the assay reference.
Data set [16] addresses T2, HISTAMINE H2 REC. (Homo sapiens, UniProt P25021). Put plainly: biochemical. Conditions: read-out: HISTAMINE H2 REC. percent activity or inhibition compared to the assay reference.
Data set [17] has as its target MONOAMINE OXIDASE-A (Homo sapiens, UniProt P21397). Put plainly: biochemical. The conditions noted are these: read-out: MONOAMINE OXIDASE-A percent activity or inhibition compared to the assay reference.
Data set [18] has as its target […]. M1 (Homo sapiens, UniProt P11229). Put plainly: biochemical. Conditions: read-out: […]. M1 percent activity or inhibition compared to the assay reference.
For data set [19], the target named is SEROTONIN TRANSPORTER (Homo sapiens, UniProt P31645). Put plainly: biochemical. Conditions: read-out: SEROTONIN TRANSPORTER percent activity or inhibition compared to the assay reference.
SEROTONIN TRANSPORTER, sequence (P31645 whole entry): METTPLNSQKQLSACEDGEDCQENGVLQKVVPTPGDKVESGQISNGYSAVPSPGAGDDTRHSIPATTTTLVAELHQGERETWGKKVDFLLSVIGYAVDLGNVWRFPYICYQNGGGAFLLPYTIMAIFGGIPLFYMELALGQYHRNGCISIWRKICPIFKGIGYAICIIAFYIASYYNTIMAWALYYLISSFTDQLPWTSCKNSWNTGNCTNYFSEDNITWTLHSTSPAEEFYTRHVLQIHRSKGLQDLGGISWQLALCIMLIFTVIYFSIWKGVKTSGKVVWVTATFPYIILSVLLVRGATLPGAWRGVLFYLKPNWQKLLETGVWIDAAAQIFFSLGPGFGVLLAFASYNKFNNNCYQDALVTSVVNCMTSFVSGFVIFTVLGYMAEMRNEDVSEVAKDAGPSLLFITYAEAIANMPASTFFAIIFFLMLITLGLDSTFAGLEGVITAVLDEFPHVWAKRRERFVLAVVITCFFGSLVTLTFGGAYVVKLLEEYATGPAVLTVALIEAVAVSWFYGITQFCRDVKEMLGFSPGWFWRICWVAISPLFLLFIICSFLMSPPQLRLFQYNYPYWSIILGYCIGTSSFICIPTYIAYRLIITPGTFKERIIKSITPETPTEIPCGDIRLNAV
Data set [20] has as its target ZAP70 (Homo sapiens, UniProt P43403). Put plainly: biochemical. The conditions noted are these: read-out: ZAP70 percent activity or inhibition compared to the assay reference.
A short description of data set [21]: Hepatocyte clearance. Conditions: for hepatocyte CLint at 1 µM: human, hepatocytes.
A short description of data set [22]: Microsomal clearance, mouse microsomes.
For data set [23], the target named is CYP2C9 (Homo sapiens, UniProt P11712). The data set is described as follows: Cytochrome P450 inhibition assay, CYP2C9. Conditions: liver microsomes. (In general: Liver microsomes are vesicles of endoplasmic reticulum, rich in cytochrome P450 enzymes.)
CYP2C9, sequence (P11712 whole entry): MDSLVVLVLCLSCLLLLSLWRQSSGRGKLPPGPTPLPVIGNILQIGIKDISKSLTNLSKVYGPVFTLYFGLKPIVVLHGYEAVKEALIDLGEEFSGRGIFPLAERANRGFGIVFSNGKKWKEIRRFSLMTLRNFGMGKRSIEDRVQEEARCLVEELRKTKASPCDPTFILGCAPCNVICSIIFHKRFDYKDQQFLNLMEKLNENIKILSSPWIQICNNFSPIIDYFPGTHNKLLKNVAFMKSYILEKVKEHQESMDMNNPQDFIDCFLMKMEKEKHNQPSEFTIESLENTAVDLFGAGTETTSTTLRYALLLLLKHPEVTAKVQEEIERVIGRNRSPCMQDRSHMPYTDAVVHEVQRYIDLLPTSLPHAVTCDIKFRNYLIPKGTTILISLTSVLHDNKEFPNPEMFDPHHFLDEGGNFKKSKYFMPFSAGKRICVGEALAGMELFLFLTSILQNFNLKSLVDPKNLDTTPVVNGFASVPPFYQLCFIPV
The target in data set [24] is CYP2D6 (Homo sapiens, UniProt P10635). The data set is described as follows: Cytochrome P450 inhibition assay, CYP2D6. The conditions noted are these: liver microsomes.
Data set [25] is described as follows: Parallel Artificial Membrane Permeability (PAMPA). Conditions: for Papp at 18 h, 150 µM: PAMPA, pH 6. In general terms: PAMPA measures passive passage across an artificial lipid membrane.
For data set [26], the target named is ABCB1 (MDR1, human P-gp) (Homo sapiens, UniProt P08183). The data set is described as follows: P-glycoprotein (P-gp) assay in LLC-PK1 cells transfected with ABCB1. Conditions: for Papp A→B: human, LLC-PK1.
Data set [27] is described as follows: Solubility in FESSIF. It is filed as physicochemical.
Data set [28] concerns GABA-A (BENZ[…]). Conditions: 10 uM; n=2.
Data set [29] relates to GLYCINE REC. The conditions noted are these: 10 uM; n=2.
In data set [30] the target is β2-ADRENOCEPTOR (Homo sapiens, UniProt P07550). Conditions: 10 uM; n=2.
The target in data set [31] is T1, CYCLO OXYGENASE 2. Conditions: 10 uM; n=2.
Data set [32] has as its target T2, HISTAMINE H2 REC. The conditions noted are these: 10 uM; n=2.

≈ marks a conversion by molar mass, not a printed value.

The text below walks through data of article PMC12749626, “Expediting hit-to-lead progression in drug discovery through reaction prediction and multi-dimensional optimization” (Nature Communications, 2025).

ZAP70, sequence (P43403 whole entry): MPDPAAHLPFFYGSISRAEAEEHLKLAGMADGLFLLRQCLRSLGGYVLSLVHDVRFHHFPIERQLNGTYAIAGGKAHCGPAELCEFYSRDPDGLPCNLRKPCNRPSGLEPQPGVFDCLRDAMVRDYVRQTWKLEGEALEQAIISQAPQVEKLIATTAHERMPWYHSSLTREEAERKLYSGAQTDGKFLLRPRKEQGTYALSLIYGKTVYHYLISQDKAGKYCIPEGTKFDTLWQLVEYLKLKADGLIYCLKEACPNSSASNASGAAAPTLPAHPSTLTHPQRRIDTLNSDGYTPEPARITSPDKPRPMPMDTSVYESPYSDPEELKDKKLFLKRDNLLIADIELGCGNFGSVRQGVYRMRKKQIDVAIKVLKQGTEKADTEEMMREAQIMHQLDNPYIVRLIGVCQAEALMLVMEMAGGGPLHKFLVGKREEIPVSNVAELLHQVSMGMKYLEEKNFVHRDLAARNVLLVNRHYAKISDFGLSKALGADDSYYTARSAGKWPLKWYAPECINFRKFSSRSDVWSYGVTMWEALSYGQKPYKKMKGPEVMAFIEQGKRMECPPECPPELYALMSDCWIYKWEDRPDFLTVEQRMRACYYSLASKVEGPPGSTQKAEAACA
[…]. M1, sequence (P11229 whole entry): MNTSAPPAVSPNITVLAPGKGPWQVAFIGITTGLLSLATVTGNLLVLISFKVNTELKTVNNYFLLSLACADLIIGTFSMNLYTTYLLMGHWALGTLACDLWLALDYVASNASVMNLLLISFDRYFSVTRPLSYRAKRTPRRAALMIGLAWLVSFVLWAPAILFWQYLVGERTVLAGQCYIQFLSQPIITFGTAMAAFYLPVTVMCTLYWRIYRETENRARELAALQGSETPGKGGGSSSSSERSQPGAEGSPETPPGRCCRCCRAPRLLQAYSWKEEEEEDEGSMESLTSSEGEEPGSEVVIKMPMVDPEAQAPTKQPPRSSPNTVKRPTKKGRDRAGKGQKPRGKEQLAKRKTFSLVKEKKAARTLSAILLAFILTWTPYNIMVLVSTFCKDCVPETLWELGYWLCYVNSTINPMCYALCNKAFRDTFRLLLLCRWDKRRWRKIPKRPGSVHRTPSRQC
T2 sequence (P25021 whole entry): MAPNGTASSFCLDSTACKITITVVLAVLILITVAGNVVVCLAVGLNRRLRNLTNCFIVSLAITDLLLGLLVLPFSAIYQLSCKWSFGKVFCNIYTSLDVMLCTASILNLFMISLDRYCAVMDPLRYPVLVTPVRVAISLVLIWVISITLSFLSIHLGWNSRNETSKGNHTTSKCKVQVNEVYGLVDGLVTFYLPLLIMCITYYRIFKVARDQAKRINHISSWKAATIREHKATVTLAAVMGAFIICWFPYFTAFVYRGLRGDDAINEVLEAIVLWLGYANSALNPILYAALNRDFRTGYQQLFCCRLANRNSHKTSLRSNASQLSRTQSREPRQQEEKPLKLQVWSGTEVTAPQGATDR
UniProt P35348, sequence (P35348 whole entry): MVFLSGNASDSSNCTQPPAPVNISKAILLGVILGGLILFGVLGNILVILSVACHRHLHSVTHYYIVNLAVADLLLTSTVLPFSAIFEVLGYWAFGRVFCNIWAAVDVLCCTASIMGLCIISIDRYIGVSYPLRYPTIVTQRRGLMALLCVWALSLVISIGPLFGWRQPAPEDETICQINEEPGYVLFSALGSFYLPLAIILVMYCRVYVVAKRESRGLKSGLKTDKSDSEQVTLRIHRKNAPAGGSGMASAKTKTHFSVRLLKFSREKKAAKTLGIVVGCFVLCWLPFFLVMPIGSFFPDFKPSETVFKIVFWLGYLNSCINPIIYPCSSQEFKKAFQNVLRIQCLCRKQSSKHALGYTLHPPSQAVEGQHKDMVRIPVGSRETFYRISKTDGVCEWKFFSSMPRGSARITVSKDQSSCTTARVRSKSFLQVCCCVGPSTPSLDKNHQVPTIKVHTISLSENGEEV
5HT1A, sequence (P08908 whole entry): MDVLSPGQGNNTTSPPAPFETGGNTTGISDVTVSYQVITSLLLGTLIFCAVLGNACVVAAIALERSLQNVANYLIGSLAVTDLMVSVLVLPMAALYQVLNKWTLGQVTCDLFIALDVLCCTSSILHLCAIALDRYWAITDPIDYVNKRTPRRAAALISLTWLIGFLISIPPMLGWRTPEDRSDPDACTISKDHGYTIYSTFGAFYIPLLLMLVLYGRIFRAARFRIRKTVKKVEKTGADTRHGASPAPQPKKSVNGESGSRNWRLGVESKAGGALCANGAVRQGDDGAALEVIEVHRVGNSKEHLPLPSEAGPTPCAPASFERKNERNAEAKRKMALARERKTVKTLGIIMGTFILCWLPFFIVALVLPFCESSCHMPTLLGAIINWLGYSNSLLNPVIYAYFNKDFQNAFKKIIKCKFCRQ
ADENOSINE A3 REC., sequence (P0DMS8 whole entry): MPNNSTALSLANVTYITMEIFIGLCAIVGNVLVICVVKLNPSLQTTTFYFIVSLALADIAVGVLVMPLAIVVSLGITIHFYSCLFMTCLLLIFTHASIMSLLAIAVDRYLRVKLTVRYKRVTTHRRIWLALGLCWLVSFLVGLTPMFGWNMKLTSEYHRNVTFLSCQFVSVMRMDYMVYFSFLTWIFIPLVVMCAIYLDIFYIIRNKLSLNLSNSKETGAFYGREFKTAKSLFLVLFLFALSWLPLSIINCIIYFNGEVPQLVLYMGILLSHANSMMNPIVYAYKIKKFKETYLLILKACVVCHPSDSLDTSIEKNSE

Turning to `O=C(c1ccc2nc(-c3cccnc3)oc2c1)N1CCN(c2nc3ccccc3c(=O)[nH]2)CC1` [Compound 17], in data set [1], the solubility (in general, the concentration that dissolves in the medium under given conditions) came to 4.2 µg/mL (≈ 9.28 µM). The inhibition (usually the change of the read-out against control, counted positive when it falls) at 10 µM in data set [2] was 1%; in [3] it was 2%; in [4] it was 3%; in data set [5], 13%; in data set [6], 13%; in data set [7] it was 6%. Moreover, the inhibition at 10 µM is 2% in data set [8]; 3% in data set [9]; -12% in data set [10]; 20% in [11]; 3% in data set [12]; -10% in data set [13]. In addition, the inhibition at 10 µM in [14] is 0%; in data set [15], -13%; in data set [16], 1%; in [17], 7%; in data set [18], 9%; in data set [19] it was -5%. In addition, the inhibition at 10 µM in [20] is -2%. The intrinsic clearance (hepatocyte CLint) (commonly the capacity of the preparation to metabolise the compound, expressed as a volume cleared per time) at 1 µM in data set [21] came to 7.3 µL/min/1e6 cells. The microsomal CLint (in general, the rate of metabolic loss divided by the concentration) at 1 µM in data set [22] is 10 µL/min/mg. For the same compound, the “CYP2C9 Inhibition” value in [23] amounted to 2%. Further, the “CYP2D6 Inhibition” value in data set [24] is -24%. Besides, the apparent permeability coefficient (Papp) (as a rule, a coefficient for how fast a substance crosses the barrier) at 18 h, 150 µM in [25] was 4 ×10⁻⁶ cm/s. In data set [26], the Papp A→B – broadly, how fast a substance crosses the layer from the apical side – was found to be 11.7 ×10⁻⁶ cm/s.

Turning to `O=C(c1ccc2nc(-c3cnccc3C3CCCC3)oc2c1)N1CCN(c2nc3nc(Cl)ccc3o2)CC1` [Compound 23], the figures for the solubility in [1] and in [27] were below 0.05 µg/mL and 1.9 µg/mL (≈ 3.59 µM), respectively. Moreover, the “GABA-A (BENZ[…]) percent activity or inhibition compared to the assay reference” value in [28] was found to be 10%. Also, in data set [29], the “GLYCINE REC. percent activity or inhibition compared to the assay reference” value came out at 7%. For the same compound, the inhibition at 10 µM in data set [2] is 11%; in data set [3], -8%; in data set [4] it was -1%; in [5] it was 21%; in data set [6] it was 4%; in data set [7], -10%. The inhibition at 10 µM in data set [8] was 2%; in [9] it was 8%; in data set [10], 9%; in data set [11], 4%; in [12] it was -1%; in data set [13], -15%. Besides, the inhibition at 10 µM in data set [14] was 5%; in data set [15] it was -2%; in [16], -1%; in [17], 2%; in data set [18], 10%; in data set [19] it was 10%. Further, the inhibition at 10 µM in [20] is -27%. In addition, the intrinsic metabolic clearance (hepatocyte CLint) at 1 µM in [21] is 179 µL/min/1e6 cells. Also, the intrinsic metabolic clearance (microsomal CLint) at 1 µM in data set [22] stood at 176 µL/min/mg. Also, the “CYP2C9 Inhibition” value in data set [23] stood at 45%. Also, in data set [24], the “CYP2D6 Inhibition” value turned out to be 38%. Moreover, in [25], the apparent permeability coefficient (Papp) at 18 h, 150 µM is 4 ×10⁻⁶ cm/s. In data set [26], the Papp A→B came to 8.9 ×10⁻⁶ cm/s.

With `O=C(c1ccc2nc(-c3cnccc3C3(C4CCC4)CC3)oc2c1)N1CCN(c2nc3nc(Cl)ccc3o2)CC1` [Compound 27], the “Solubility in 0.05M PO4-” value in [1] is below 0.6 µg/mL. Besides, the “β2-ADRENOCEPTOR percent activity or inhibition compared to the assay reference” value in data set [30] is -2%. Moreover, the “CYCLO OXYGENASE 2 percent activity or inhibition compared to the assay reference” value in data set [31] worked out at 6%. The “GABA-A (BENZ[…]) percent activity or inhibition compared to the assay reference” value in [28] stood at 9%. For the same compound, the “GLYCINE REC. percent activity or inhibition compared to the assay reference” value in data set [29] amounted to 3%. Besides, the “HISTAMINE H2 REC. percent activity or inhibition compared to the assay reference” value in [32] was -4%. This compound displayed a Hepatocyte clearance in data set [21] (cryopreserved hepatocytes of human origin, 1 µM compound) of 101.0 µL/min/10^6 cells. The “CYP2C9 Inhibition” value in data set [23] amounted to 73%. In addition, the “CYP2D6 Inhibition” value in [24] is reported as 79%. Also, in [25] (donor buffer pH 6.0, 18-hour incubation), the PAMPA permeability was 0.9 10^-6 cm/s. Besides, the P-gp in [26] (apparent permeability, apical-to-basolateral, LLC-PK1 cells with human P-gp) was found to be 7.1 ×10⁻⁶ cm/s.

Regarding `O=C(c1ccc2nc(-c3cnccc3C3CCCC3)oc2c1)N1CC2(CC(n3cnc(C4CC4)n3)C2)C1` [Compound 29], the results for the solubility in data set [1] and in data set [27] were below 0.05 µg/mL and 25 µg/mL (≈ 50.5 µM), respectively. For the same compound, the “GABA-A (BENZ[…]) percent activity or inhibition compared to the assay reference” value in data set [28] was -1%. Further, the “GLYCINE REC. percent activity or inhibition compared to the assay reference” value in [29] was -2%. The inhibition at 10 µM in data set [2] was 19%; in [3], -5%; in data set [4], 0%; in [5], 28%; in data set [6] it was 50%; in [7] it was 7%. The inhibition at 10 µM in [8] is 9%; in data set [9] it was -6%; in data set [10] it was 8%; in data set [11] it was 23%; in [12], 7%; in [13], 4%. In addition, the inhibition at 10 µM was -3% in data set [14]; -6% in data set [15]; 11% in [16]; 0% in [17]; 8% in data set [18]; -11% in data set [19]. The inhibition at 10 µM in data set [20] amounted to 5%. This compound also showed a hepatocyte CLint at 1 µM in data set [21] of 181 µL/min/1e6 cells. This compound registered a microsomal CLint at 1 µM in [22] of 536 µL/min/mg. Further, the “CYP2C9 Inhibition” value in data set [23] turned out to be 70%. Further, in data set [24], the “CYP2D6 Inhibition” value is given as 34%. For the same compound, the Papp at 18 h, 150 µM in [25] stood at 5.9 ×10⁻⁶ cm/s. Besides, the cell permeability result in [25] (in words, SI2.2, Fig. S1 (PAMPA vs LipE)) is “potent cell permeability”. Besides, the Papp A→B in data set [26] is 13.2 ×10⁻⁶ cm/s.
